According to ChEMBL document CHEMBL1201862, “PubChem BioAssay data set” (2004):
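Where inhibition never reached the appropriate level, the endpoint shown equals the highest concentration tested. Otherwise, values were interpolated linearly from a five-concentration, 48-hour dose response in 96-well plates. GI50 marks 50% less growth.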 Activity calls are given as the source filed them. Cut-off read from the data, not from the text of the source: active = GI50 up to about 1.1 µM and inactive = higher.

Columns and labels:
Experiment in all cases: NCI tumour cell line growth inhibition, 48 h
[1] = tested on: TK-10
[2] = tested on: PC-3
[3] = tested on: SK-MEL-28
[4] = tested on: SW-620
[5] = tested on: ACHN
[6] = tested on: OVCAR-8
[7] = tested on: SK-MEL-5
[8] = tested on: HOP-92
[9] = tested on: COLO 205
[10] = tested on: SNB-75
[11] = tested on: HL-60
[12] = tested on: M14
[13] = tested on: NCI-H522
[14] = tested on: HCC 2998
[15] = tested on: MDA-MB-435
[16] = tested on: HT-29
[17] = tested on: SR
[18] = tested on: EKVX
[19] = tested on: NCI/ADR-RES
[20] = tested on: RXF 393
[21] = tested on: NCI-H226
[22] = tested on: T47D
[23] = tested on: UACC-257
[24] = tested on: HOP-62
[25] = tested on: CAKI-1
[26] = tested on: NCI-H460
[27] = tested on: HCT-116
[28] = tested on: LOX IMVI
[29] = tested on: SN12C
[30] = tested on: Malme-3M
[31] = tested on: SF-539
[32] = tested on: NCI-H23
[33] = tested on: SK-OV-3
[34] = tested on: SF-295
[35] = tested on: SF-268
[36] = tested on: DU-145
[37] = tested on: UACC-62
[38] = tested on: IGROV-1
[39] = tested on: KM12
[40] = tested on: MDA-N
[41] = tested on: MCF7
[42] = tested on: UO-31
[43] = tested on: Hs-578T
[44] = tested on: MDA-MB-231
[45] = tested on: 786-0
[46] = tested on: CCRF-CEM
[47] = tested on: BT-549
[48] = tested on: RPMI-8226
[49] = tested on: MOLT-4
[50] = tested on: K562
[51] = tested on: SNB-19
[52] = tested on: OVCAR-4
[53] = tested on: HCT-15
[54] = tested on: A549
[55] = tested on: U-251
[56] = tested on: A498
[57] = tested on: OVCAR-3
[58] = tested on: OVCAR-5
[59] = tested on: SK-MEL-2

## O=C1CSC2=NCC3(NN12)c1ccccc1-c1ccccc13
[1]
  GI50: > 10 µM (inactive)
[2]
  GI50: > 10 µM (inactive)
[3]
  GI50: > 10 µM (inactive)
[4]
  GI50: > 10 µM (inactive)
[5]
  GI50: > 10 µM (inactive)
[6]
  GI50: > 10 µM (inactive)
[7]
  GI50: > 10 µM (inactive)
[8]
  GI50: > 10 µM (inactive)
[9]
  GI50: > 10 µM (inactive)
[10]
  GI50: > 10 µM (inactive)
[11]
  GI50: > 10 µM (inactive)
[12]
  GI50: > 10 µM (inactive)
[13]
  GI50: > 10 µM (inactive)
[14]
  GI50: > 10 µM (inactive)
[15]
  GI50: > 10 µM (inactive)
[16]
  GI50: > 10 µM (inactive)
[17]
  GI50: > 10 µM (inactive)
[18]
  GI50: > 10 µM (inactive)
[19]
  GI50: > 10 µM (inactive)
[20]
  GI50: > 10 µM (inactive)
[21]
  GI50: > 10 µM (inactive)
[22]
  GI50: > 10 µM (inactive)
[23]
  GI50: > 10 µM (inactive)
[24]
  GI50: > 10 µM (inactive)
[25]
  GI50: > 10 µM (inactive)
[26]
  GI50: > 10 µM (inactive)
[27]
  GI50: > 10 µM (inactive)
[28]
  GI50: > 10 µM (inactive)
[29]
  GI50: > 10 µM (inactive)
[30]
  GI50: > 10 µM (inactive)
[31]
  GI50: > 10 µM (inactive)
[32]
  GI50: > 10 µM (inactive)
[33]
  GI50: > 10 µM (inactive)
[34]
  GI50: > 10 µM (inactive)
[35]
  GI50: > 10 µM (inactive)
[36]
  GI50: > 10 µM (inactive)
[37]
  GI50: > 10 µM (inactive)
[38]
  GI50: > 10 µM (inactive)
[39]
  GI50: > 10 µM (inactive)
[40]
  GI50: > 10 µM (inactive)
[41]
  GI50: > 10 µM (inactive)
[42]
  GI50: > 10 µM (inactive)
[43]
  GI50: > 10 µM (inactive)
[44]
  GI50: > 10 µM (inactive)
[45]
  GI50: > 10 µM (inactive)
[46]
  GI50: > 10 µM (inactive)
[47]
  GI50: > 10 µM (inactive)
[48]
  GI50: > 10 µM (inactive)
[49]
  GI50: > 10 µM (inactive)
[50]
  GI50: > 10 µM (inactive)
[51]
  GI50: > 10 µM (inactive)
[52]
  GI50: > 10 µM (inactive)
[53]
  GI50: > 10 µM
[54]
  GI50: > 10 µM (inactive)

## CCOC(=O)c1cnc2[nH]ccn2c1=O
[55]
  GI50: > 10 µM (inactive)
[1]
  GI50: > 10 µM (inactive)
[2]
  GI50: > 10 µM (inactive)
[3]
  GI50: > 10 µM (inactive)
[4]
  GI50: > 10 µM (inactive)
[5]
  GI50: > 10 µM (inactive)
[6]
  GI50: > 10 µM (inactive)
[7]
  GI50: > 10 µM (inactive)
[8]
  GI50: > 10 µM (inactive)
[9]
  GI50: > 10 µM (inactive)
[10]
  GI50: > 10 µM (inactive)
[11]
  GI50: > 10 µM (inactive)
[12]
  GI50: > 10 µM (inactive)
[15]
  GI50: > 10 µM (inactive)
[16]
  GI50: > 10 µM (inactive)
[17]
  GI50: > 10 µM (inactive)
[18]
  GI50: > 10 µM (inactive)
[19]
  GI50: > 10 µM (inactive)
[20]
  GI50: > 10 µM (inactive)
[21]
  GI50: > 10 µM (inactive)
[22]
  GI50: > 10 µM (inactive)
[23]
  GI50: > 10 µM (inactive)
[24]
  GI50: > 10 µM (inactive)
[25]
  GI50: > 10 µM (inactive)
[26]
  GI50: > 10 µM (inactive)
[27]
  GI50: > 10 µM (inactive)
[56]
  GI50: 5.48 µM (inactive)
[28]
  GI50: > 10 µM (inactive)
[29]
  GI50: > 10 µM (inactive)
[30]
  GI50: > 10 µM (inactive)
[31]
  GI50: > 10 µM (inactive)
[32]
  GI50: > 10 µM (inactive)
[33]
  GI50: > 10 µM (inactive)
[34]
  GI50: > 10 µM (inactive)
[35]
  GI50: > 10 µM (inactive)
[36]
  GI50: > 10 µM (inactive)
[37]
  GI50: > 10 µM (inactive)
[38]
  GI50: > 10 µM (inactive)
[39]
  GI50: > 10 µM (inactive)
[40]
  GI50: > 10 µM (inactive)
[41]
  GI50: > 10 µM (inactive)
[42]
  GI50: > 10 µM (inactive)
[43]
  GI50: > 10 µM (inactive)
[57]
  GI50: > 10 µM (inactive)
[58]
  GI50: > 10 µM (inactive)
[44]
  GI50: > 10 µM (inactive)
[45]
  GI50: > 10 µM (inactive)
[46]
  GI50: > 10 µM (inactive)
[47]
  GI50: > 10 µM (inactive)
[48]
  GI50: > 10 µM (inactive)
[49]
  GI50: > 10 µM (inactive)
[50]
  GI50: > 10 µM (inactive)
[51]
  GI50: > 10 µM (inactive)
[52]
  GI50: > 10 µM (inactive)
[53]
  GI50: > 10 µM
[59]
  GI50: > 10 µM (inactive)
[54]
  GI50: > 10 µM (inactive)
